Experimental data as given in US20130150566A1, “TUMOR-TARGETED TNF-RELATED APOPTOSIS-INDUCING LIGAND'S VARIANT AND THE APPLICATION THEREOF” (TARGETPHARMA LABORATORIES (CHANGZHOU) CO., LTD, priority 2011, published 2013).

Tests used:
[1] = system: COLO-205 cells; assay: Cell apoptosis by double staining of Annexin V and propidium iodide, COLO-205; format: cell-based; conditions: COLO-205 cell
Protocol: (§1) The supernatant is removed and the cells are suspended again by 100 μl binding buffer. Annexin V-FITC (BD Pharmgen Company) is added to which final concentration is 2 μg/ml, and the cells are incubated at the room temperature. 10 minutes later, 400 μl binding buffer is supplemented. The cells are transferred into Flow Analyzer Tube, and 1 μg propidium iodide (Sigma Company) is added into each of the tube. The cells are analyzed by Flow Cytometer within 30 minutes. The experiment is repeated three times for each cell line.
(§2) The activity to induce the tumor cell apoptosis of the tumor-targeted TNF-related apoptosis-inducing ligand's variant NGR-TRAIL is appraised using COLO-205, HCT-15 and HT-29 cells separately (FIG. 4). After induced by series concentration gradient TRAIL variant or TRAIL, the tumor cells are detected by Flow Cytometer according to the double staining method of Annexin V-FITC and Pl. […] The sensibility of Hela cell to TRAIL is increased 8 times because of the addition of the short peptide. […] There is a positive correction between the difference of the apoptosis-inducing to these tumor cells between NGR-L-TRAIL and TRAIL and the expression and the abundance of the CD13 molecule on the surface of tumor cell. […] The NGR domain from NGR-L-TRAIL can direct the protein of TRAIL variant to the surface of target cell to enrichment on the cell surface. […]

[2] = system: Hela cells; assay: Cell apoptosis by double staining of Annexin V and propidium iodide, Hela; format: cell-based, human
Protocol: as §1, §2

[3] = system: mutated Jurkat cells from FADD−/− and Caspase-−/−; assay: Apoptosis induction in mutated Jurkat cells; format: cell-based
[4] = system: HCT-15 tumor; assay: Anti-tumor effect in HCT-15 colon cancer model in nude mice; format: in vivo; conditions: HCT-15 model; 400 μg/day per mouse combining with CPT-11; 28th day
Protocol: The female nude mice bought from ShangHai Experiment Animal Center are 5-6 weeks old. The mouse tail intravenous injection of 100 μg of purified Asialo GM-1 antibody (Wako Chemicals Company, Japan) that is specific antibody blocking natural killer cells is carried out first. 24 hours later, 100 thousands of COLO-205, HT-15 and HT-29 colon cancer cells is subcutaneously vaccinated at the top right side of the back of a mouse. When the volume of tumor arrives 70 cubic millimeters, the mice are grouped randomly and treated. […] Hydrosoluble camptothecin CPT-11([…], trade name: Campto, from Pharmacia/Upjohn Company) is administrated by intravenous administration once a week, for twice in all. The recombinant protein and camptothecin are diluted by phosphate buffer. The volume of tumor is detected by vernier caliper and calculated according the formula: length is multiplied by the square of width and then is divided by 2.
The anti-tumor effect of tumor-targeted TRAIL used together with chemotherapeutic drug CPT-11 is researched in the present invention. Through COLO-205, HC-15 and HT-29 models of athymic nude mice, the anti-tumor effect of NGR-L-TRAIL used together with chemotherapeutic drug CPT-11 is researched, wherein, COLO-205, HC-15 are sensitive to TRAIL, and COLO-205 is most sensitive, and HT-29 is insensitive to TRAIL. […]

50% effective concentration (EC50) (inducing apoptosis) [2]: ~0.145 µg/mL
Substance: TRAIL: recombinant wild human TNF-related apoptosis-inducing ligand
50% effective concentration (inducing apoptosis) [1]: 3.5 ng/mL
inducing apoptosis [3]: cannot be detected
tumor disappeared mice from the 10 administrated mice [4]: 7
